Our source for the EC50 and Ki values is patent US8202865B2, “Oxadiazole derivatives” (Merck Serono SA, priority 2007, dated 2012).

Counter-ions that a name gives are not always drawn.

For one test, the target named is T1, S1P3 (Homo sapiens, UniProt Q99500).
T1 construct: expressed in transfected cells; host or cells: CHO cells (membranes)
Briefly: 35S-GTPγS binding, S1P3 membranes. It is filed as biochemical. The conditions noted are these: membranes from CHO cells expressing S1P3; 60 min 30° C. As for the experimental part:
(§1) Receptor binding assay: Membranes were prepared from CHO cells expressing S1P1 or S1P3 for use in ligand and […] binding studies. Cells were suspended in 50 mM TRIS, pH 7.4, 2 mM EDTA, 250 mM Sucrose (buffer A) and 1× Complete protease inhibitor cocktail (Roche), and disrupted at 4° C. by N2 decompression using a cell disruption bomb (Parr Instrument). Following centrifugation at 1000 RPM for 10 min at 4° C., the supernatant was suspended in buffer A and centrifuged again at 19000 RPM for 60 min at 4° C. The pellet was then suspended in 10 mM HEPES, pH 7.4, 1 mM EDTA, 250 mM Sucrose (Buffer B), and 1× Complete EDTA-free protease inhibitor cocktail and homogenized using a potter. Membranes were flash frozen in liquid N2 and stored at −80° C. [33P]sphingosine 1-phosphate (3000 Ci/mmol; American Radiolabeled Chemicals, Inc.) was added to test compounds in DMSO. Membranes and WGA SPA beads (GE Healthcare) were added to give a final volume of 100 μl in 96-well plates with assay concentrations of 25 pM or 10 pM [33P]sphingosine 1-phosphate (respectively for S1P1 or S1P3), 50 mM HEPES, pH 7.5, 5 mM MgCl2, 100 mM NaCl, 0.4% fatty acid-free BSA, 1-5 μg/well of proteins and 100 μg/well of WGA SPA beads. Binding was performed for 60 min at RT on a shaker and bound radioactivity was measured on a PerkinElmer 1450 MicroBeta counter. Specific binding was calculated by subtracting remaining radioactivity in the presence of 1000-fold excess of unlabeled S1P. Binding data were analyzed using the GraphPad Prism program.
Measurements of ^35S-GTPγS Binding: Membranes (1 to 10 μg protein) prepared as described above, were incubated in 96-well Scintiplates (PerkinElmer) with test compounds diluted in DMSO, in 180 μl of 20 mM HEPES, pH 7.4, 10 mM MgCl2, 2 μg/well Saponin, 0.2% fatty acid free BSA (Assay buffer), 140 mM NaCl and 1.7 μM GDP. The assay was initiated with the addition of 20 μl of 1.5 nM [35S]-GTPγS (1100 Ci/mmol; GE Healthcare) in assay buffer. After 60 min incubation at 30° C. on a shaker, plates were centrifuged for 10 min at 2000 RPM. Supernatant was discarded and membrane bound radioactivity was measured on a PerkinElmer 1450 MicroBeta counter. Triplicate samples were averaged and expressed as % response relative to S1P activation in absence of compound (n=2).
On the technique in general: Binding of GTPγS marks nucleotide exchange on a G protein.

Test [1] deals with T2, S1P1 (Homo sapiens, UniProt P21453).
T2 construct: expressed in transfected cells; host or cells: CHO cells (membranes)
The test can be described thus: 35S-GTPγS binding, S1P1 membranes. It is filed as biochemical. The conditions noted are these: membranes from CHO cells expressing S1P1; 60 min 30° C. The method in brief: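 CHO-cell membranes expressing S1P1 or S1P3 (1-10 μg) incubated with compounds in 20 mM HEPES pH 7.4, 10 mM MgCl2, 140 mM NaCl, saponin, 0.2% BSA, 1.7 μM GDP and [35S]-GTPγS (20 μl of 1.5 nM added), 60 min at 30° C. Bound radioactivity expressed as % of S1P activation.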

For test [2], the target named is T2, S1P1. The test can be described thus: Receptor binding assay, [33P]sphingosine 1-phosphate, membranes, WGA SPA beads. The conditions noted are these: membranes from CHO cells expressing S1P1; 25 pM [33P]S1P; 60 min RT. As for the experimental part:
as §1

T2 sequence (P21453 whole entry, species assumed): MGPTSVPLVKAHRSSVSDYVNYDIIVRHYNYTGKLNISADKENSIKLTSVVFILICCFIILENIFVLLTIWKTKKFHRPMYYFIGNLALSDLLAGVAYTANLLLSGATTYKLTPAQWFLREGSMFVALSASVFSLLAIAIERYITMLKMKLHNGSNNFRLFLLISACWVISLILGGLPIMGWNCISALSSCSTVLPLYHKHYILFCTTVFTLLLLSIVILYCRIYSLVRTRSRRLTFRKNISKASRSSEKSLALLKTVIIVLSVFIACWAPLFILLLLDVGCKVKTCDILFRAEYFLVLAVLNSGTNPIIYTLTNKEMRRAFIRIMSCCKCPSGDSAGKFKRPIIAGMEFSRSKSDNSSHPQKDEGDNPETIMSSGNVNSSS
T1 sequence (Q99500 whole entry, species assumed): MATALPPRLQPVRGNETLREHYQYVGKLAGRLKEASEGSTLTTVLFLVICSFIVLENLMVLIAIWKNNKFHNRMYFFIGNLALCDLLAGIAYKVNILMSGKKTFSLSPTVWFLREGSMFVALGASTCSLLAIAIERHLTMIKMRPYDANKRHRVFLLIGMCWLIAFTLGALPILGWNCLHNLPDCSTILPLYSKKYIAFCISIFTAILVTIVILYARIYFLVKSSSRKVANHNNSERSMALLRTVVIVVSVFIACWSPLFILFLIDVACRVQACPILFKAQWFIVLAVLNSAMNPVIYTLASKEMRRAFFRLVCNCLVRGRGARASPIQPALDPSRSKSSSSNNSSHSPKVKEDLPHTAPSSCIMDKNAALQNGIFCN

What is called EC50 is the midpoint of the concentration-response curve. A low value points to greater potency. Usually Ki stands for the dissociation constant of the complex between target and ligand, obtained from inhibition or displacement. A lower Ki goes with higher affinity. Turning to `CCS(=O)(=O)Nc1cc(-c2nc(-c3ccc(C(=O)O)c(F)c3)no2)ccc1N1CCCCC1C` (stereo not drawn) [Example 67, 4-{5-[3-[(ethylsulfonyl)amino]-4-(2-methylpiperidin-1-yl)phenyl]-1,2,4-oxadiazol-3-yl}-2-fluorobenzoic acid], the EC50 came to 1750 nM at S1P3 and 72 nM on S1P1 [1]. Further, the Ki at S1P1 [2] amounted to 67 nM.
In the case of `Cc1ccccc1-c1ccc(-c2nc(-c3ccc(C(=O)O)c(Cl)c3)no2)cc1C` [Example 68, 2-chloro-4-[5-(2,2′-dimethylbiphenyl-4-yl)-1,2,4-oxadiazol-3-yl]benzoic acid], the EC50 on S1P3 was greater than 30000 nM; on S1P1 [1], 133 nM. At S1P1 [2], this compound displayed a Ki of 65 nM.
For `COCc1cc(-c2nc(-c3ccc(C(=O)O)c(Cl)c3)no2)ccc1-c1ccccc1C` [Example 69, 2-chloro-4-{5-[2-(methoxymethyl)-2′-methylbiphenyl-4-yl]-1,2,4-oxadiazol-3-yl}benzoic acid] the same measures were 2630 nM, 34 nM and 26 nM.
For `CC1CCCCN1c1ccc(-c2nc(-c3ccc(C(=O)O)c(Cl)c3)no2)cc1NS(C)(=O)=O` (stereo not drawn) [Example 70, 2-chloro-4-(5-{4-(2-methylpiperidin-1-yl)-3-[(methylsulfonyl)amino]phenyl}-1,2,4-oxadiazol-3-yl)benzoic acid] the same measures were 1410 nM, 57 nM and 69 nM.
As for `CC1CCCCN1c1ccc(-c2nc(-c3ccc(C(=O)O)c(F)c3)no2)cc1NS(=O)(=O)N(C)C` (stereo not drawn) [Example 73, 4-{5-[3-{[(dimethylamino)sulfonyl]amino}-4-(2-methylpiperidin-1-yl)phenyl]-1,2,4-oxadiazol-3-yl}-2-fluorobenzoic acid], the results for the EC50 on S1P3 and on S1P1 [1] were 2000 nM and 122 nM, respectively. Besides, on S1P1 [2], the affinity, expressed as Ki, was 213 nM.
On the same counts, the results for `CCCS(=O)(=O)Nc1cc(-c2nc(-c3ccc(C(=O)O)c(F)c3)no2)ccc1N1CCCCC1C` (stereo not drawn) [Example 74, 2-fluoro-4-(5-{4-(2-methylpiperidin-1-yl)-3-[(propylsulfonyl)amino]phenyl}-1,2,4-oxadiazol-3-yl)benzoic acid] are 1770 nM, 408 nM and 443 nM.
For `Cc1ccccc1-c1ccc(-c2nc(-c3ccc(C(=O)O)c(F)c3)no2)cc1CN1CCOCC1` [Example 75, 2-fluoro-4-{5-[2′-methyl-2-(morpholin-4-ylmethyl)biphenyl-4-yl]-1,2,4-oxadiazol-3-yl}benzoic acid, Trifluoroacetic acid salt], the concentration for a half-maximal effect (EC50) on S1P3 was 1350 nM; on S1P1 [1] it was 182 nM. Also, on S1P1 [2], affinity was put at a Ki of 177 nM.
For the compound `CCc1ccccc1-c1ccc(-c2nc(-c3ccc(C(=O)O)c(F)c3)no2)cc1COC` [Example 78, 4-{5-[2′-ethyl-2-(methoxymethyl)biphenyl-4-yl]-1,2,4-oxadiazol-3-yl}-2-fluorobenzoic acid], the 50% effective concentration (EC50) on S1P3 was found to be 3030 nM; on S1P1 [1] it was 15 nM. Besides, affinity on S1P1 [2] was put at a Ki of 2 nM.
`COCc1cc(-c2nc(-c3ccc(C(=O)O)c(F)c3)no2)ccc1-c1ccccc1OC` [Example 79, 2-fluoro-4-{5-[2′-methoxy-2-(methoxymethyl)biphenyl-4-yl]-1,2,4-oxadiazol-3-yl}benzoic acid]: the EC50 on S1P3 is greater than 20000 nM; on S1P1 [1], 208 nM. The compound further displayed a Ki on S1P1 [2] of 74 nM.
Regarding `COCc1cc(-c2nc(-c3ccc(C(=O)O)c(F)c3)no2)ccc1-c1ccccc1F` [Example 81, 2-fluoro-4-{5-[2′-fluoro-2-(methoxymethyl)biphenyl-4-yl]-1,2,4-oxadiazol-3-yl}benzoic acid], the EC50 at S1P3 came to 2780 nM; on S1P1 [1], 115 nM. The compound further yielded a Ki on S1P1 [2] of 28 nM.
For `COCc1cc(-c2nc(-c3ccc(C(=O)O)c(F)c3)no2)ccc1-c1cc(F)ccc1C` [Example 84, 2-fluoro-4-{5-[5′-fluoro-2-(methoxymethyl)-2′-methylbiphenyl-4-yl]-1,2,4-oxadiazol-3-yl}benzoic acid] the same measures were 2800 nM, 34 nM and 55 nM.
On the same counts, the results for `COCc1cc(-c2nc(-c3ccc(C(=O)O)c(F)c3)no2)ccc1-c1ccccc1C(F)(F)F` [Example 86, 2-fluoro-4-{5-[2-(methoxymethyl)-2′-(trifluoromethyl)biphenyl-4-yl]-1,2,4-oxadiazol-3-yl}benzoic acid] are greater than 20000 nM, 155 nM and 48 nM.
On the same counts, the results for `COCc1cc(-c2nc(-c3cccc(C(=O)O)c3)no2)ccc1-c1ccccc1C` [Example 92, 3-{5-[2-(methoxymethyl)-2′-methylbiphenyl-4-yl]-1,2,4-oxadiazol-3-yl}benzoic acid] are 1250 nM, 63 nM and 37 nM.
With `COCc1cc(-c2nc(-c3ccc(C(=O)O)c(F)c3)no2)ccc1-c1cscc1C` [Example 93, 2-fluoro-4-{5-[3-(methoxymethyl)-4-(4-methyl-3-thienyl)phenyl]-1,2,4-oxadiazol-3-yl}benzoic acid], the values for the concentration giving a half-maximal response (EC50) on S1P3 and on S1P1 [1] were 1380 nM and 18 nM, respectively. Further, affinity on S1P1 [2] was put at a Ki of 10 nM.
In the case of `COCc1cc(-c2nc(-c3ccc(C(=O)O)c(F)c3)no2)ccc1-c1cccc(C)c1C` [Example 95, 2-fluoro-4-{5-[2-(methoxymethyl)-2′,3′-dimethylbiphenyl-4-yl]-1,2,4-oxadiazol-3-yl}benzoic acid], the EC50 turned out to be 4960 nM at S1P3 and 48 nM on S1P1 [1]. Moreover, at S1P1 [2], the Ki was 16 nM.
On the same counts, the results for `COCc1cc(-c2nc(-c3cc(F)c(C(=O)O)cc3F)no2)ccc1-c1ccccc1C` [Example 97, 2,5-difluoro-4-{5-[2-(methoxymethyl)-2′-methylbiphenyl-4-yl]-1,2,4-oxadiazol-3-yl}benzoic acid] are 1940 nM, 64 nM and 8 nM.
Regarding `CCOc1cc(-c2nc(-c3ccc(C(=O)O)c(F)c3)no2)ccc1-c1ccccc1C` [Example 102, 4-[5-(2-ethoxy-2′-methylbiphenyl-4-yl)-1,2,4-oxadiazol-3-yl]-2-fluorobenzoic acid], the results for the EC50 at S1P3 and on S1P1 [1] were 1760 nM and 58 nM, respectively. Besides, the affinity on S1P1 [2], expressed as Ki, was 11 nM.
As to `COCc1cc(-c2nc(-c3ccc(C(=O)O)c(F)c3)no2)ccc1N1CCCCC1C` (stereo not drawn) [Example 114, 2-fluoro-4-{5-[3-(methoxymethyl)-4-(2-methylpiperidin-1-yl)phenyl]-1,2,4-oxadiazol-3-yl}benzoic acid], the figures for the EC50 on S1P3 and at S1P1 [1] were 2810 nM and 13 nM, respectively. The compound further came in with a Ki on S1P1 [2] of 2.7 nM.
Take `CCOC(=O)C1(NC(=O)c2ccc(-c3noc(-c4ccc(-c5ccccc5C)c(COC)c4)n3)cc2F)CC1` [Example 118, Ethyl 1-[(2-fluoro-4-{5-[2-(methoxymethyl)-2′-methylbiphenyl-4-yl]-1,2,4-oxadiazol-3-yl}benzoyl)amino]cyclopropanecarboxylate]: the EC50 at S1P3 worked out at 2160 nM; on S1P1 [1], 7 nM. The compound also displayed a Ki at S1P1 [2] of 2 nM.
On the same counts, the results for `COCc1cc(-c2nc(-c3ccc(C(=O)NCCC(=O)O)c(F)c3)no2)ccc1-c1ccccc1C` [Example 119, N-(2-fluoro-4-{5-[2-(methoxymethyl)-2′-methylbiphenyl-4-yl]-1,2,4-oxadiazol-3-yl}benzoyl)-beta-alanine] are 502 nM, 7.3 nM and 2 nM.
On the same counts, the results for `COCc1cc(-c2nc(-c3ccc(C(=O)NC(C)CC(=O)O)c(F)c3)no2)ccc1-c1ccccc1C` (stereo not drawn) [Example 123, 3-[(2-fluoro-4-{5-[2-(methoxymethyl)-2′-methylbiphenyl-4-yl]-1,2,4-oxadiazol-3-yl}benzoyl)amino]butanoic acid] are 1210 nM, 37.3 nM and 4 nM.
